In patent US9694016B2 (Novartis AG, priority 2013, dated 2017) one finds IC50 data, which are given here for 32 compounds.

In the first assay the target is b-Raf (V600E) (Homo sapiens (Human), UniProt P15056, V600E). The conditions noted are these: read-out: b-Raf IC-50; AlphaScreen, 60 min pre-incubation, 3 hours reaction.
Sequence of b-Raf (V600E) (P15056 whole entry V600E): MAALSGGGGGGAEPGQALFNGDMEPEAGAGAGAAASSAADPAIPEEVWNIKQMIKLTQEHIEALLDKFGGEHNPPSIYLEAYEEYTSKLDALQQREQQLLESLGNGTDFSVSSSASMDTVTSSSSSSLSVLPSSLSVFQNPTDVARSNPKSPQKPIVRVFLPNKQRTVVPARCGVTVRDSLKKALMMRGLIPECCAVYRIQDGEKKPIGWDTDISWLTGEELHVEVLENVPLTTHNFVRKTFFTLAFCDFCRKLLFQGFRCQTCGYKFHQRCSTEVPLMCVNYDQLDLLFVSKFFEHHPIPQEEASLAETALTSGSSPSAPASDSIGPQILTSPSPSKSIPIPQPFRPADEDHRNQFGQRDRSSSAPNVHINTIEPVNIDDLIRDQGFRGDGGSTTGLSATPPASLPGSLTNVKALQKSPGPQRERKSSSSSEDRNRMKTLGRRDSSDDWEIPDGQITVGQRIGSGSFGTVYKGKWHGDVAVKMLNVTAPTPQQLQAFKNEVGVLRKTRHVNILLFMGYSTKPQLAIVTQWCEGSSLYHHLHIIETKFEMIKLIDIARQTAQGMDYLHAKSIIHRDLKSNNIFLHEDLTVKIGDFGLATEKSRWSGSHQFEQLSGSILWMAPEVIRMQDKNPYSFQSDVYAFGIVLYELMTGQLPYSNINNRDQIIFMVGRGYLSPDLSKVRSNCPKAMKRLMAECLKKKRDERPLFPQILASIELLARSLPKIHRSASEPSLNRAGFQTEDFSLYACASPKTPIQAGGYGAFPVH
`Cc1ncc(NC(=O)c2ccnc(C(C)(C)C#N)c2)cc1-c1cc(N2CCOCC2)nc(N[C@@H](C)CO)n1` [Example 744, (S)-2-(2-cyanopropan-2-yl)-N-(5-(2-((1-hydroxypropan-2-yl)amino)-6-morpholinopyrimidin-4-yl)-6-methylpyridin-3-yl)isonicotinamide]: the IC50 came out at 42.7 nM. Still for that read-out and setting: under `Cc1ccc(NC(=O)c2ccnc(C(C)(C)O)c2)cc1-c1cc(N2CCOCC2)n(C)c(=O)c1` [Example 483, 2-(2-hydroxypropan-2-yl)-N-(4-methyl-3-(1-methyl-6-morpholino-2-oxo-1,2-dihydropyridin-4-yl)phenyl)isonicotinamide] stands 3.5 nM. Turning to `Cc1ncc(NC(=O)c2ccnc(C(F)(F)F)c2)cc1-c1cc(N2CCOCC2)n(C)c(=O)c1` [Example 500], the IC50 is 5.6 nM. Turning to `Cc1ncc(C(=O)Nc2cccc(C(F)(F)F)c2)cc1-c1cc(N2CCOCC2)c(=O)n(C)c1` [Example 443, 1′,2-dimethyl-5′-morpholino-6′-oxo-N-(3-(trifluoromethyl)phenyl)-1′,6′-dihydro-[3,3′-bipyridine]-5-carboxamide], the IC50 turned out to be 6.2 nM.

Take `Cc1ncc(NC(=O)c2ccnc(C(C)(C)O)c2)cc1-c1cc(N2CCOCC2)n2nccc2n1` [Example 797, 2-(2-hydroxypropan-2-yl)-N-(6-methyl-5-(7-morpholinopyrazolo[1,5-a]pyrimidin-5-yl)pyridin-3-yl)isonicotinamide]: the IC50 was determined as 24.7 nM. On the same count and under the same terms, under `CCOc1nc(-c2cc(NC(=O)c3ccnc(C(C)(F)F)c3)ccc2C)cc(N2CCOCC2)n1` [Example 761, 2-(1,1-difluoroethyl)-N-(3-(2-ethoxy-6-morpholinopyrimidin-4-yl)-4-methylphenyl)isonicotinamide] stands 0.9 nM. On to `Cc1ncc(NC(=O)c2cccc(C(C)(C)S(C)(=O)=O)c2)cc1-c1cc(N2CCOCC2)n(C)c(=O)c1` [Example 512, N-(1′,2-dimethyl-6′-morpholino-2′-oxo-1′,2′-dihydro-[3,4′-bipyridin]-5-yl)-3-(2-(methylsulfonyl)propan-2-yl)benzamide], for which the IC50 is 59.8 nM. Still for that read-out and setting: the figure for `CCNc1nc(-c2cc(NC(=O)c3ccnc(C(F)(F)F)c3)ccc2C)cc(N2CCOCC2)n1` [Example 694, N-(3-(2-(ethylamino)-6-morpholinopyrimidin-4-yl)-4-methylphenyl)-2-(trifluoromethyl)isonicotinamide] is 1 nM; for `Cc1ccc(NC(=O)c2ccnc(C(C)C)c2)cc1-c1cc(N2CCOCC2)nc(OC2CNC2)n1` [Example 778, N-(3-(2-(azetidin-3-yloxy)-6-morpholinopyrimidin-4-yl)-4-methylphenyl)-2-isopropylisonicotinamide] it is 2.3 nM; for `CCOc1nnc(-c2cc(NC(=O)c3cccc(C(F)(F)F)c3)cnc2C)cc1N1CCOC[C@H]1C` [Example 622, (R)—N-(5-(6-ethoxy-5-(3-methylmorpholino)pyridazin-3-yl)-6-methylpyridin-3-yl)-3-(trifluoromethyl)benzamide] it is 4.9 nM. `Cc1ncc(NC(=O)c2ccnc(C(C)(C)C#N)c2)cc1-c1cc(N2CCOCC2)n2nccc2n1` [Example 791, 2-(2-cyanopropan-2-yl)-N-(6-methyl-5-(7-morpholinopyrazolo[1,5-a]pyrimidin-5-yl)pyridin-3-yl)isonicotinamide]: the IC50 came to 11.4 nM. Take `Cc1ccc(C(=O)Nc2cccc(C(C)(C)O)c2)cc1-c1cc(N2CCOCC2)c(=O)n(C)c1` [Example 439, N-(3-(2-hydroxypropan-2-yl)phenyl)-4-methyl-3-(1-methyl-5-morpholino-6-oxo-1,6-dihydropyridin-3-yl)benzamide]: the IC50 was 6.3 nM.

For the compound `Cc1ccc(NC(=O)c2ccnc(C3COC3)c2)cc1-c1cc(N2CCOCC2)n(C)c(=O)c1` [Example 478, N-(4-methyl-3-(1-methyl-6-morpholino-2-oxo-1,2-dihydropyridin-4-yl)phenyl)-2-(oxetan-3-yl)isonicotinamide], the IC50 was found to be 2.5 nM.

The same assay, now with this note: read-out: b-Raf IC-50; AlphaScreen, 60 min pre-incubation, reaction 3 hours at room temperature.
For `CCOc1cc(-c2cc(NC(=O)c3ccnc(C(C)(C)F)c3)cnc2C)cc(N2CCOCC2)n1` [Example 1142, N-(2′-ethoxy-2-methyl-6′-morpholino-[3,4′-bipyridin]-5-yl)-2-(2-fluoropropan-2-yl)isonicotinamide], the IC50 came out at 3.18 nM. Still for that read-out and setting: under `CCOc1cc(-c2cc(NC(=O)c3ccnc(C(C)(C)C#N)c3)cnc2C)cc(N2CCOCC2)n1` [Example 1147, 2-(2-cyanopropan-2-yl)-N-(2′-ethoxy-2-methyl-6′-morpholino-[3,4′-bipyridin]-5-yl)isonicotinamide] stands 8.31 nM; under `Cc1ccc(NC(=O)c2ccnc(C(F)(F)F)c2)cc1-c1cnc(OCCO)c(N2CCOCC2)c1` [Example 1002, N-(3-(6-(2-hydroxyethoxy)-5-morpholinopyridin-3-yl)-4-methylphenyl)-2-(trifluoromethyl)isonicotinamide], 1.75 nM; under `Cc1ncc(NC(=O)c2ccnc(C(C)(C)O)c2)cc1-c1cc(N2CCOCC2)c2nccn2c1` [Example 878, 2-(2-hydroxypropan-2-yl)-N-(6-methyl-5-(8-morpholinoimidazo[1,2-a]pyridin-6-yl)pyridin-3-yl)isonicotinamide], 100 nM. Still for that read-out and setting: under `Cc1ccc(NC(=O)c2ccnc(C3(C#N)CC3)c2)cc1-c1cc(N2CCOCC2)nc(N2CC(C)(O)C2)c1` [Example 1111, 2-(1-cyanocyclopropyl)-N-(3-(2-(3-hydroxy-3-methylazetidin-1-yl)-6-morpholinopyridin-4-yl)-4-methylphenyl)isonicotinamide] stands 2.09 nM. Same read-out and setting: under `Cc1ncc(NC(=O)c2ccnc(S(C)(=O)=O)c2)cc1-c1cc(NCCO)nc(N2CCOCC2)c1` [Example 1043, N-(2′-((2-hydroxyethyl)amino)-2-methyl-6′-morpholino-[3,4′-bipyridin]-5-yl)-2-(methylsulfonyl)isonicotinamide] stands 22.8 nM. As to `Cc1ccc(NC(=O)c2ccnc(C(F)F)c2)cc1-c1nc2c(c(N3CCOCC3)n1)S(=O)(=O)CC2` [Example 856, 2-(difluoromethyl)-N-(4-methyl-3-(4-morpholino-5,5-dioxido-6,7-dihydrothieno[3,2-d]pyrimidin-2-yl)phenyl)isonicotinamide], the IC50 was found to be 5.5 nM. For the compound `Cc1ccc(NC(=O)c2cccc(C(F)(F)F)c2)cc1-c1nc2c(c(N3CCOCC3)n1)S(=O)(=O)CC2` [Example 857, N-(4-methyl-3-(4-morpholino-5,5-dioxido-6,7-dihydrothieno[3,2-d]pyrimidin-2-yl)phenyl)-3-(trifluoromethyl)benzamide], the IC50 turned out to be 0.4 nM.

Still in this assay, the particulars now being: read-out: b-Raf IC-50; Table 2; AlphaScreen, 3 hours reaction.
As for `Cc1cc(C(=O)Nc2cnc(C)c(-c3cc(N4CCOCC4)c(=O)n(C)c3)c2)n(C)n1` [Example 376, N-(1′,2-dimethyl-5′-morpholino-6′-oxo-1′,6′-dihydro-[3,3′-bipyridin]-5-yl)-1,3-dimethyl-1H-pyrazole-5-carboxamide], the IC50 was 2800 nM. On the same count and under the same terms, under `CCN(C(=O)c1cccc(C(F)(F)F)c1)c1cnc(C)c(-c2cnc(OC3CCOCC3)c(N3CCOCC3)c2)c1` [Example 329, N-ethyl-N-(2-methyl-5′-morpholino-6′-((tetrahydro-2H-pyran-4-yl)oxy)-[3,3′-bipyridin]-5-yl)-3-(trifluoromethyl)benzamide] stands 1100 nM.

Regarding `Cc1nn(C(C)C)cc1C(=O)Nc1cnc(C)c(-c2cc(N3CCOCC3)c(=O)n(C)c2)c1` [Example 375, N-(1′,2-dimethyl-5′-morpholino-6′-oxo-1′,6′-dihydro-[3,3′-bipyridin]-5-yl)-1-isopropyl-3-methyl-1H-pyrazole-4-carboxamide], the IC50 was found to be 200 nM. On the same count and under the same terms, the figure for `Cc1ncc(NC(=O)c2ccnc(C(C)(C)C#N)c2)cc1-c1cncc(N2CCOCC2)c1` [Example 297, 2-(2-cyanopropan-2-yl)-N-(2-methyl-5′-morpholino-[3,3′-bipyridin]-5-yl)isonicotinamide] is 18.8 nM; for `Cc1ccc(NC(=O)c2cnnc(C3CC3)c2)cc1-c1cnc(OC2CCOCC2)c(N2CCOCC2)c1` [Example 276, 6-cyclopropyl-N-(4-methyl-3-(5-morpholino-6-((tetrahydro-2H-pyran-4-yl)oxy)pyridin-3-yl)phenyl)pyridazine-4-carboxamide] it is 0.4 nM; for `Cc1nc(C(=O)Nc2cnc(C)c(-c3cc(N4CCOCC4)c(=O)n(C)c3)c2)c(C)o1` [Example 383, N-(1′,2-dimethyl-5′-morpholino-6′-oxo-1′,6′-dihydro-[3,3′-bipyridin]-5-yl)-2,5-dimethyloxazole-4-carboxamide] it is 2800 nM. The same measure, in the same setting: the figure for `CCOc1cccc(C(=O)Nc2cnc(C)c(-c3cc(N4CCOCC4)c(=O)n(C)c3)c2)c1` [Example 397, N-(1′,2-dimethyl-5′-morpholino-6′-oxo-1′,6′-dihydro-[3,3′-bipyridin]-5-yl)-3-ethoxybenzamide] is 10 nM. In the case of `Cc1ccc(NC(=O)c2cccc(OC(C)C)c2)cc1-c1cc(N2CCOCC2)c(=O)n(C)c1` [Example 345, 3-isopropoxy-N-(4-methyl-3-(1-methyl-5-morpholino-6-oxo-1,6-dihydropyridin-3-yl)phenyl)benzamide], the IC50 is 1.6 nM. Consider `CCOc1ncc(-c2cc(NC(=O)c3cc(CN(C)C)cc(C(F)(F)F)c3)cnc2C)cc1N1CCOCC1` [Example 258, 3-((dimethylamino)methyl)-N-(6′-ethoxy-2-methyl-5′-morpholino-[3,3′-bipyridin]-5-yl)-5-(trifluoromethyl)benzamide], for which the IC50 was 8.3 nM.

As to `Cc1ncc(NC(=O)c2ccnc(C(C)C)c2)cc1-c1cnc(C#N)c(N2CCOCC2)c1` [Example 251, N-(6′-cyano-2-methyl-5′-morpholino-[3,3′-bipyridin]-5-yl)-2-isopropylisonicotinamide], the IC50 turned out to be 3.1 nM. In the case of `Cc1ncc(NC(=O)c2cccc(C3(C#N)CC3)c2Cl)cc1-c1cc(N2CCOCC2)c(=O)n(C)c1` [Example 403, 2-chloro-3-(1-cyanocyclopropyl)-N-(1′,2-dimethyl-5′-morpholino-6′-oxo-1′,6′-dihydro-[3,3′-bipyridin]-5-yl)benzamide], the IC50 was determined as 62 nM.
